Experimental data published in ChEMBL document CHEMBL3739380, “Discovery of benzothiazoles as antimycobacterial agents: Synthesis, structure-activity relationships and binding studies with Mycobacterium tuberculosis decaprenylphosphoryl-β-D-ribose 2'-oxidase” (Bioorg Med Chem, 2015).
≈ marks a conversion by molar mass, not a printed value.

Key:
[1] = Inhibition of Mycobacterium tuberculosis DprE1 using farnesyl-phosphoryl-beta-D-ribofuranose as substrate preincubated for 30 mins before substrate addition by peroxidase coupled assay
[2] = tested on: Mycobacterium tuberculosis; assay: Antimycobacterial activity against Mycobacterium tuberculosis H37Rv ATCC 27294 after 5 days by microdilution method; format: functional; details: H37Rv ATCC 27294, 120 h
[3] = tested on: Mycobacterium tuberculosis; assay: Antimycobacterial activity against Mycobacterium tuberculosis H37Rv ATCC 27294 infected in human THP1 cells assessed as log reduction CFU after 7 days by killing kinetic assay; format: functional, THP-1
[4] = tested on: Mycobacterium tuberculosis; assay: Antimycobacterial activity against Mycobacterium tuberculosis H37Rv ATCC 27294 infected in BMDM assessed as log reduction CFU after 7 days by killing kinetic assay; format: functional
Salmonella typhimurium [5] = assay: Genotoxicity in Salmonella typhimurium TA98 at 5000 ug/plate by Ames test in presence of S9 fraction; format: toxicity, organism-based; details: salmonella enterica subsp. enterica serovar typhimurium
Salmonella typhimurium [6] = assay: Genotoxicity in Salmonella typhimurium TA98 at 5000 ug/plate by Ames test in absence of S9 fraction; format: toxicity, organism-based; details: salmonella enterica subsp. enterica serovar typhimurium
Salmonella typhimurium [7] = assay: Genotoxicity in Salmonella typhimurium TA100 at 5000 ug/plate by Ames test in absence of S9 fraction; format: toxicity, organism-based; details: salmonella enterica subsp. enterica serovar typhimurium
Salmonella typhimurium [8] = assay: Genotoxicity in Salmonella typhimurium TA100 at 5000 ug/plate by Ames test in presence of S9 fraction; format: toxicity, organism-based; details: salmonella enterica subsp. enterica serovar typhimurium
Salmonella typhimurium [9] = assay: Genotoxicity in Salmonella typhimurium TA98 at 500 ug/plate by Ames test in absence of S9 fraction; format: toxicity, organism-based; details: salmonella enterica subsp. enterica serovar typhimurium
Salmonella typhimurium [10] = assay: Genotoxicity in Salmonella typhimurium TA98 at 500 ug/plate by Ames test in presence of S9 fraction; format: toxicity, organism-based; details: salmonella enterica subsp. enterica serovar typhimurium
Salmonella typhimurium [11] = assay: Genotoxicity in Salmonella typhimurium TA100 at 16 ug/plate by Ames test in presence of S9 fraction; format: toxicity, organism-based; details: salmonella enterica subsp. enterica serovar typhimurium
Salmonella typhimurium [12] = assay: Genotoxicity in Salmonella typhimurium TA100 at 50 ug/plate by Ames test in absence of S9 fraction; format: toxicity, organism-based; details: salmonella enterica subsp. enterica serovar typhimurium
[13] = tested on: Mycobacterium tuberculosis; assay: Antimycobacterial activity against Mycobacterium tuberculosis H37Rv ATCC 27294 after 2 to 3 weeks by turbidity assay; format: functional

| Structure (SMILES) | IC50 [1] [µM] | MIC [2] [µg/mL] | other results |
| --- | --- | --- | --- |
| N#Cc1cc([N+](=O)[O-])c2sc(C(=O)N3CCCCC3)nc2c1 | 1.8 | 1 (≈ 3.16 µM) | – |
| O=C(NCc1ccccn1)c1nc2cc(C(F)(F)F)ccc2s1 | > 100 | > 32 | – |
| Cc1c(C(F)(F)F)cc2nc(C(=O)NCc3ccccn3)sc2c1[N+](=O)[O-] | 1.2 | 0.3 (≈ 0.757 µM) | – |
| O=C(c1nc2cc(C(F)(F)F)cc([N+](=O)[O-])c2s1)N1CCOCC1 | 0.3 | 0.1 (≈ 0.277 µM) | – |
| C[C@H](NC(=O)c1sc2c([N+](=O)[O-])cc(C(F)(F)F)cc2[n+]1[O-])C(=O)C1CCCC1 | 0.06 | 0.02 (≈ 0.0464 µM) | Activity [3]: 1 log10CFU/ml; Activity [4]: 1 log10CFU/ml |
| Cc1c(C(F)(F)F)cc2nc(C(=O)N[C@@H](CCO)C(=O)N3CCCCC3)sc2c1[N+](=O)[O-] | 1.2 | 0.7 (≈ 1.48 µM) | Activity [3]: 1 log10CFU/ml; Activity [4]: 1 log10CFU/ml |
| O=C(O)c1cc(C(F)(F)F)cc2nc(C(=O)N3CCCCC3)sc12 | > 100 | > 32 | – |
| N#Cc1cc(C(F)(F)F)cc2nc(C(=O)N3CCCCC3)sc12 | – | > 32 | – |
| O=C(c1nc2cc(C(F)(F)F)cc(B(O)O)c2s1)N1CCCCC1 | – | > 32 | – |
| Cc1c(C(F)(F)F)cc2nc(C3=NCCO3)sc2c1[N+](=O)[O-] | 3.9 | 8 (≈ 24.1 µM) | Activity (Salmonella typhimurium [5]): Non-toxic; Activity (Salmonella typhimurium [6]): Non-toxic; Activity (Salmonella typhimurium [7]): Non-toxic; Activity (Salmonella typhimurium [8]): Non-toxic |
| O=C(c1nc2cc(C(F)(F)F)cc([N+](=O)[O-])c2s1)N1CCCCC1 | 0.213 | 0.7 (≈ 1.95 µM) | Activity (Salmonella typhimurium [9]): Toxic; Activity (Salmonella typhimurium [10]): Toxic; Activity (Salmonella typhimurium [11]): Toxic; Activity (Salmonella typhimurium [12]): Toxic |
| Cc1c(C(F)(F)F)cc2nc(C(=O)N3CCCCC3)sc2c1[N+](=O)[O-] | 2.2 | 0.25 (≈ 0.67 µM) | MIC [13]: 0.5 µg/mL (≈ 1.34 µM); Activity (Salmonella typhimurium [5]): Non-toxic; Activity (Salmonella typhimurium [6]): Non-toxic; Activity (Salmonella typhimurium [7]): Non-toxic; Activity (Salmonella typhimurium [8]): Non-toxic |
| CNC(=O)c1cc([N+](=O)[O-])c2sc(C(=O)N3CCCCC3)nc2c1 | 53 | 32 (≈ 91.9 µM) | – |
| O=[N+]([O-])c1cc(C(F)(F)F)cc2nc(CN3CCOCC3)sc12 | 5.2 | > 32 | – |
| O=C(N[C@@H](CO)C(=O)N1CCCC1)c1nc2cc(C(F)(F)F)cc([N+](=O)[O-])c2s1 | 0.349 | 0.35 (≈ 0.809 µM) | – |
| Cc1c(C(F)(F)F)cc2nc(C(=O)N[C@@H](CO)C(=O)N3CCCC3)sc2c1[N+](=O)[O-] | 1.2 | 1 (≈ 2.24 µM) | – |
| O=C(c1nc2cc(C(F)(F)F)cc(-[n+]3cc([O-])on3)c2s1)N1CCCCC1 | 28.2 | 32 (≈ 80.3 µM) | – |
